# Measurements published in US8883826B2, “Alkynyl derivatives as modulators of metabotropic glutamate receptors” (Addex Pharma SA, priority 2004, dated 2014).
# pIC50: −log10 of the molar value.
# How the values were obtained:
# mGluR5 = molecular target: T1, mGluR5 (Rattus norvegicus, UniProt P31424); test: mGluR5 binding assay ([3H]-MPEP radioligand competition); conditions: competition with 3 nM [3H]-MPEP, rat brain cortical membranes, 1 h at 4 °C; mean of at least three independent experiments in duplicate
# T1 construct: tissue Charles River Laboratories; host or cells: rat brain cortex membranes (Sprague-Dawley)
# T1 sequence (P31424 21-1203): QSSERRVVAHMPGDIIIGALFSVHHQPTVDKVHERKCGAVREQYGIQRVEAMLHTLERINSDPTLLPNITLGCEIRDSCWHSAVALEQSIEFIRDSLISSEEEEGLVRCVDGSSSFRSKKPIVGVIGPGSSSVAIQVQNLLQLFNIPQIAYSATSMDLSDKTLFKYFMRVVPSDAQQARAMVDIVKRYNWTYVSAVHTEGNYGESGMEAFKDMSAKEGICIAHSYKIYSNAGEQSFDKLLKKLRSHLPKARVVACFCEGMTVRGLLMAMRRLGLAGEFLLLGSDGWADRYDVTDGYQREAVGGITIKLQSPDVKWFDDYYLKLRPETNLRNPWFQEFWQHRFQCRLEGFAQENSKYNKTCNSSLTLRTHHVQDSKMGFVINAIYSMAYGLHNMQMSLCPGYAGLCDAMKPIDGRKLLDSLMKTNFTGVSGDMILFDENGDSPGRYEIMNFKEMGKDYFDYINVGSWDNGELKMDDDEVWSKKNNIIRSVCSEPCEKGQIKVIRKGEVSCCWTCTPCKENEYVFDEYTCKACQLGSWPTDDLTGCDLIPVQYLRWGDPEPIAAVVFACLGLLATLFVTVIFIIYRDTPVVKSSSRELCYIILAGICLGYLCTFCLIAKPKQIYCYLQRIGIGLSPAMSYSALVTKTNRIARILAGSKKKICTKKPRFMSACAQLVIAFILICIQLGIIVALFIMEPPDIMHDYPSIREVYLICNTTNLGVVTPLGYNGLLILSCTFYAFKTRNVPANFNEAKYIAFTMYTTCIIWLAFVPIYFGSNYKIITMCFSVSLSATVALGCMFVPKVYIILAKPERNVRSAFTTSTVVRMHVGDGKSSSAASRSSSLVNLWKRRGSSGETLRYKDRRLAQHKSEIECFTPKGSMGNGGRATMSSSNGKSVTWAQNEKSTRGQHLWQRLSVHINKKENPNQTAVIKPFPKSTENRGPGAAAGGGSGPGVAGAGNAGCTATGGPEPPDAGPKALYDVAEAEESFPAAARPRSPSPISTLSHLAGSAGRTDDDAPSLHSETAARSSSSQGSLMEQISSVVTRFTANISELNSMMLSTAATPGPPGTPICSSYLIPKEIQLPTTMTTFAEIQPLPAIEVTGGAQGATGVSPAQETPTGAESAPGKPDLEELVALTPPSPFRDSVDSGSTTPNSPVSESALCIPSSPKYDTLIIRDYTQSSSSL
# In short: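 Rat cortical membranes (50 μg) were incubated 1 h at 4 °C with 3 nM [3H]-MPEP and compound (0.003 nM-30 μM, 8 points) in HEPES buffer pH 7.4 with Mg2+, Ca2+ and NaCl. 30 μM MPEP defined non-specific binding, and bound label was counted after filtration. IC50 came from non-linear regression, as the mean of ≥3 experiments run in duplicate.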
compound,measurement,setting,value
"C(#Cc1ccccn1)CCc1nc2ccccc2o1.Cl [Example 8, 2-(4-(Pyridin-2-yl)but-3-ynyl)benzo[d]oxazole Hydrochloride]",pIC50,mGluR5,> 7.30
same,melting point,,143.5 to 145 °C
"Cc1nc(C#CCCc2ccccc2)c[nH]1 [Example 11, 2-Methyl-4-(4-phenylbut-1-ynyl)-1H-imidazole]",melting point,,124 to 126 °C
"CN(C(=O)CCC#Cc1ccccn1)c1ccccc1 [Example 12, N-Methyl-N-phenyl-5-(pyridin-2-yl)pent-4-ynamide]",pIC50,mGluR5,> 5.00
same,melting point,,68 to 71 °C
"C(#Cc1ccccn1)CCn1nnc(-c2ccccc2)n1 [Example 32, 2-(4-(5-Phenyl-2H-tetrazol-2-yl)but-1-ynyl)pyridine]",pIC50,mGluR5,> 5.00
same,melting point,,71 to 73 °C
"O=C(CCC#Cc1ccccn1)Nc1ccc(F)cc1 [Example 34, N-(4-Fluorophenyl)-5-(pyridine-2-yl)pent-4-ynamide]",pIC50,mGluR5,> 6.00
same,melting point,,189.9 to 190.2 °C
"C(#Cc1ccccn1)CCc1nc2ccccc2s1 [Example 35, 2-(4-(Pyridin-2-yl)but-3-ynyl)benzo[d]thiazole]",pIC50,mGluR5,> 7.30
same,melting point,,98.5 to 99.4 °C
"Clc1ccc2nc(CCC#Cc3ccccn3)oc2c1 [Example 36, 6-Chloro-(2-(4-pyridin-2-yl)but-3-ynyl)benzo[d]oxazole]",pIC50,mGluR5,> 5.00
same,melting point,,101.5 to 102.2 °C
"Fc1ccc2oc(CCC#Cc3ccccn3)nc2c1 [Example 37, 5-Fluoro-(2-(4-pyridin-2-yl)but-3-ynyl)benzo[d]oxazole]",pIC50,mGluR5,> 5.00
same,melting point,,100.1 to 101 °C
"Fc1ccc(C#CCCC#Cc2ccccn2)cc1 [Example 38, 2-(6-(4-Fluorophenyl)hexa-1,5-diynyl)pyridine]",pIC50,mGluR5,> 5.00
same,melting point,,68 to 69 °C
"O=c1n(CCC#Cc2ccccn2)nc2ccccn12 [Example 39, 2-(4-(Pyridin-2-yl)but-3-ynyl)-[1,2,4]triazolo[4,3-a]pyridin-3(2H)-one]",melting point,,95.5 to 96 °C
"Clc1ccc(-c2noc(CCC#Cc3ccccn3)n2)cc1 [Example 47, 2-(4-(3-(4-Chlorophenyl)-1,2,4-oxadiazol-5-yl)but-1-ynyl)pyridine]",pIC50,mGluR5,> 5.00
same,melting point,,75 to 77 °C
"C(#Cc1ccccn1)CCc1nc(-c2ccc3ccccc3c2)no1 [Example 51, 2-(4-(3-(Naphthalen-2-yl)-1,2,4-oxadiazol-5-yl)but-1-ynyl)pyridine]",pIC50,mGluR5,> 5.00
same,melting point,,76 to 78 °C
"Clc1ccc(-c2noc(CCC#Cc3ccccn3)n2)c(Cl)c1 [Example 57, 2-(4-(3-(2,4-Dichlorophenyl)-1,2,4-oxadiazol-5-yl)but-1-ynyl)pyridine]",pIC50,mGluR5,> 5.00
same,melting point,,77 to 78 °C
"O=C(NCCC#Cc1cccc(CF)n1)c1c(Cl)cccc1Cl [Example 189, 2,6-Dichloro-N-(4-(6-(fluoromethyl)pyridin-2-yl)but-3-ynyl)benzamide]",pIC50,mGluR5,> 5.00
"Cn1c(CCC#Cc2cccc(CF)n2)nc2cccc(Cl)c21 [Example 191, 7-Chloro-2-(4-(6-(fluoromethyl)pyridin-2-yl)but-3-ynyl)-1-methyl-1H-benzo[d]imidazole]",pIC50,mGluR5,> 5.00
"Cn1c(CCC#Cc2ccccn2)nc2cccc(Cl)c21 [Example 192, 7-Chloro-1-methyl-2-(4-(pyridin-2-yl)but-3-ynyl)-1H-benzo[d]imidazole]",pIC50,mGluR5,> 6.30
"CC(C)n1c(CCC#Cc2ccccn2)nc2ccccc21 [Example 194, 1-Isopropyl-2-(4-(pyridin-2-yl)but-3-ynyl)-1H-benzo[d]imidazole]",pIC50,mGluR5,> 5.00
"Cn1c(CCC#Cc2ccccn2)nc2cc(F)ccc21 [Example 197, 5-Fluoro-1-methyl-2-(4-(pyridin-2-yl)but-3-ynyl)-1H-benzo[d]imidazole]",pIC50,mGluR5,> 5.00
"O=c1ccccn1CCC#Cc1ccccn1 [Example 198, 1-(4-(Pyridin-2-yl)but-3-ynyl)pyridin-2(1H)-one]",pIC50,mGluR5,> 5.00
"CN(CCC#Cc1ccccn1)C(=O)c1cccc(F)c1 [Example 200, 3-Fluoro-N-methyl-N-(4-(pyridin-2-yl)but-3-ynyl)benzamide]",pIC50,mGluR5,> 5.00
"CN(CCC#Cc1ccccn1)C(=O)c1ccccc1C(F)(F)F [Example 202, N-Methyl-N-(4-(pyridin-2-yl)but-3-ynyl)-2-(trifluoromethyl)benzamide]",pIC50,mGluR5,> 5.00
"CN(CCC#Cc1ccccn1)C(=O)c1ccccc1Cl [Example 204, 2-Chloro-N-methyl-N-(4-(pyridin-2-yl)but-3-ynyl)benzamide]",pIC50,mGluR5,> 5.00
"CN(CCC#Cc1ccccn1)C(=O)c1cccc(Cl)c1 [Example 205, 3-Chloro-N-methyl-N-(4-(pyridin-2-yl)but-3-ynyl)benzamide]",pIC50,mGluR5,> 5.00
"CN(CCC#Cc1ccccn1)S(=O)(=O)c1ccc(F)cc1 [Example 206, 4-Fluoro-N-methyl-N-(4-(pyridin-2-yl)but-3-ynyl)benzenesulfonamide]",pIC50,mGluR5,> 5.00
"CN(CCC#Cc1ccccn1)S(=O)(=O)c1ccccc1Cl [Example 207, 2-Chloro-N-methyl-N-(4-(pyridin-2-yl)but-3-ynyl)benzenesulfonamide]",pIC50,mGluR5,> 5.00
"CN(CCC#Cc1cccc(CF)n1)C(=O)c1ccccc1Cl [Example 208, 2-Chloro-N-(4-(6-(fluoromethyl)pyridin-2-yl)but-3-ynyl)-N-methylbenzamide]",pIC50,mGluR5,> 6.30
"CN(CCC#Cc1cccc(CF)n1)S(=O)(=O)c1ccccc1Cl [Example 209, 2-Chloro-N-(4-(6-(fluoromethyl)pyridin-2-yl)but-3-ynyl)-N-methylbenzene sulfonamide]",pIC50,mGluR5,> 7.30
"CN(CCC#Cc1ccccn1)C(=O)c1ccccc1 [Example 211, N-Methyl-N-(4-(pyridin-2-yl)but-3-ynyl)benzamide]",pIC50,mGluR5,> 5.00
"Cc1ccccc1C(=O)N(C)CCC#Cc1ccccn1 [Example 212, N,2-Dimethyl-N-(4-(pyridin-2-yl)but-3-ynyl)benzamide]",pIC50,mGluR5,> 5.00
"CN(CCC#Cc1ccccn1)C(=O)c1ccccc1F [Example 213, 2-Fluoro-N-methyl-N-(4-(pyridin-2-yl)but-3-ynyl)benzamide]",pIC50,mGluR5,> 5.00
"Cc1cccc(C(=O)N(C)CCC#Cc2ccccn2)c1 [Example 215, N,3-Dimethyl-N-(4-(pyridin-2-yl)but-3-ynyl)benzamide]",pIC50,mGluR5,> 5.00
"COc1ccccc1C(=O)N(C)CCC#Cc1ccccn1 [Example 216, 2-Methoxy-N-methyl-N-(4-(pyridin-2-yl)but-3-ynyl)benzamide]",pIC50,mGluR5,> 5.00
"CN(CCC#Cc1ccccn1)C(=O)c1cccc(F)c1F [Example 217, 2,3-Difluoro-N-methyl-N-(4-(pyridin-2-yl)but-3-ynyl)benzamide]",pIC50,mGluR5,> 5.00
"CN(CCC#Cc1ccccn1)C(=O)c1c(Cl)cccc1Cl [Example 218, 2,6-Dichloro-N-methyl-N-(4-(pyridin-2-yl)but-3-ynyl)benzamide]",pIC50,mGluR5,> 6.30
"Cc1noc(C)c1S(=O)(=O)N(C)CCC#Cc1ccccn1 [Example 219, N,3,5-Trimethyl-N-(4-(pyridin-2-yl)but-3-ynyl)isoxazole-4-sulfonamide]",pIC50,mGluR5,> 5.00
"C(#Cc1ccccn1)CCNc1nc2ccccc2s1 [Example 220, N-(4-(Pyridin-2-yl)but-3-ynyl)benzo[d]thiazol-2-amine]",pIC50,mGluR5,> 5.00
"Cn1c(=O)n(CCCC#Cc2ccccn2)c2ccccc21 [Example 221, 1-Methyl-3-(5-(pyridin-2-yl)pent-4-ynyl)-1H-benzo[d]imidazol-2(3H)-one]",pIC50,mGluR5,> 5.00
"FCc1cccc(C#CCCc2cn3cccc(Br)c3n2)n1 [Example 225, 8-Bromo-2-(4-(6-(fluoromethyl)pyridin-2-yl)but-3-ynyl)-imidazo[1,2-a]pyridine]",pIC50,mGluR5,> 7.30
"FCc1cccc(C#CCCc2cn3cccc(-c4ccccc4)c3n2)n1 [Example 227, 2-(4-(6-(Fluoromethyl)pyridin-2-yl)but-3-ynyl)-8-phenyl-imidazo[1,2-a]pyridine]",pIC50,mGluR5,> 5.00
"Cc1csc(C#CCCn2nc3ccccc3n2)n1 [Example 229, 2-(4-(4-Methylthiazol-2-yl)but-3-ynyl)-2H-benzo[d][1,2,3]triazole]",melting point,,78 to 80 °C
"O=C(OCCC#Cc1ccccn1)c1ccccc1Cl [Example 235, 4-(Pyridin-2-yl)but-3-ynyl 2-chlorobenzoate]",pIC50,mGluR5,> 7.30
"O=C(OCCC#Cc1ccccn1)c1cccc(Cl)c1 [Example 236, 4-(Pyridin-2-yl)but-3-ynyl 3-chlorobenzoate]",pIC50,mGluR5,> 7.30
"O=c1c2ccccc2cnn1CCCCC#Cc1ccccn1 [Example 243, 2-(6-(Pyridin-2-yl)hex-5-ynyl)phthalazin-1(2H)-one]",pIC50,mGluR5,> 5.00
"O=C(NCCC#Cc1cccc(CF)n1)c1ccccc1Cl [Example 247, 2-Chloro-N-(4-(6-(fluoromethyl)pyridin-2-yl)but-3-ynyl)benzamide]",pIC50,mGluR5,> 5.00
"FCc1cccc(C#CCCn2ncc(-c3ccc(F)cc3)n2)n1 [Example 250, 2-(Fluoromethyl)-6-(4-(4-(4-fluorophenyl)-2H-1,2,3-triazol-2-yl)but-1-ynyl)pyridine]",melting point,,84 to 86 °C
"Cc1cc(F)ccc1NC(=O)CCC#Cc1cccc(CF)n1 [Example 252, 5-(6-(Fluoromethyl)pyridin-2-yl)-N-(4-fluoro-2-methyl-phenyl)pent-4-ynamide]",melting point,,122 to 125 °C
"FCc1cccc(C#CCCn2cc(-c3ccc(F)cc3)nn2)n1 [Example 254, 2-(Fluoromethyl)-6-(4-(4-(4-fluorophenyl)-1H-1,2,3-triazol-1-yl)but-1-ynyl)pyridine]",melting point,,100 to 103 °C
"Cc1c(-c2ccc(F)cc2)nnn1CCC#Cc1ccccn1 [Example 258, 2-(4-(4-(4-Fluorophenyl)-5-methyl-1H-1,2,3-triazol-1-yl)but-1-ynyl)pyridine]",melting point,,130 to 131 °C
